Measured values as given in US11945881B2, “Neoantigens expressed in ovarian cancer and their uses” (Janssen Biotech, Inc., priority 2020, dated 2024).

How the values were obtained:
CD8+ T cells = assay: exogenous autologous normal donor restimulation assay, TNFα/IFNγ double positive CD8+ T cells by flow cytometry; format: cell-based, human; settings: for Fold change (CD8+) vs. DMSO: maximum CD8+ T-cell response (TNFα and IFNγ); for Fold change (CD8+) vs. DMSO / Frequency (TNFα + IFNγ + CD8 T cells): donor independent, peptide pool 10 μg/mL, healthy donors; for Frequency (TNFα + IFNγ + CD8 T cells): maximum CD8+ T-cell response; for Immunogenic (yes/no): positive if CD8+ and/or CD4+ double positive TNFα/IFNγ frequency >=3-fold over DMSO and at least 0.01%
Description: (§1) The immunogenicity of neoantigens was assessed using the exogenous autologous normal donor restimulation assay. […] The lyophilized peptides were solubilized in 100% DMSO.
(§2) CD1c+ Dendritic Cells (CD1c+DC) isolated from human healthy PBMCs were thawed using media (IMDM (Gibco) supplemented with glutamine, HEPES, 5% human serum (Sigma), and 1× Pen-Strep). DC cells were resuspended in media supplemented with IL-4 (Peprotech, 20 ng/mL) and GM-CSF (Gibco, 20 ng/mL), plated in 6 well microplates, and rested overnight at 37° C. and 5% CO2 incubator. The following day, DC cells were counted and plated in a 96 well round bottom microplate at a concentration of 30,000 viable cells per well. Lyophilized neoantigen peptide pools (15-mer peptides with 8-mer overlapping peptide sequences) were solubilized in 100% DMSO with a stock concentration of 20 mg/mL Neoantigen peptides pools were added to DCs for a final concentration of 10 μg/mL and rested for 2 hours at 37° C. and 5% CO2 incubator. CEF Peptide Pool “Plus” (Cellular Technologies, Ltd.) was utilized as a positive control (each viral peptide at a final concentration of 4 ug/ml) and DMSO at the same final concentration (0.05%) as the experimental peptides was utilized as a negative control. After 2 hours, DC cells were irradiated with 50 gray of ionizing radiation. Autologous CD3+ Pan-T cells isolated from human normal PBMCs were thawed using media. Following irradiation, autologous Pan-T cells were added to the irradiated DCs at 300,000 viable cells per well. Human IL-15 (Peprotech) was added to all wells at final concentration of 10 ng/ml. Plates were incubated at 37° C. and 5% CO2 incubator for a total of 12 days. Media was refreshed every 2-3 days with IL-15 (R&D System, 10 ng/mL final concentration) and IL-2 (R&D systems, 10 IU/mL final concentration).
(§3) On Day 11, cells were re-stimulated with identical experimental peptide pools or controls, at same concentration as peptide stimulation on Day 1. Protein Inhibitor Cocktail (eBioscience) was added to every well and plate was incubated overnight for 14-16 hours at 37° C. and 5% CO2 incubator. On Day 12, cells were stained for surface and intracellular flow cytometry analysis. The cells were washed with PBS and stained with Live/Dead Fixable Aqua Dead Cell stain (Thermo-Fisher). Following the live/dead stain, cells were blocked using Biotin-Fre Fc Receptor Blocker (Accurate Chemical & Scientific Corp). Extracellular cellular flow panel ([…] per well in 50 μL) consisted of CD3 PerCP-Cy5.5 (Biolegend), CD4 BV421 (Biolegend), and CD8 APC-Cy7 (Biolegend). After extracellular staining, cells were fixed and permeabilized using Foxp3/Transcription Factor Staining Buffer Set (eBioscience) and stained for intracellular proteins (1:50 dilution) using TNFα FITC (R&D Systems) and IFNγ BV785 (Biolegend). Cells were washed and resuspended in stain buffer, analyzed, and recorded in a BD Celesta flow cytometer.
(§4) Flow cytometry analysis was conducted on FlowJo v10.6 software. Cells were gated on live, singlet, CD3+, CD4+ and CD8+ T cells. The CD8+ and CD4+ T cells were analyzed for TNFα and IFNγ expression.
(§5) The immunogenicity of neoantigens was first investigated in 9-16 healthy donors.

CD4+ T cells = assay: exogenous autologous normal donor restimulation assay, TNFα/IFNγ double positive CD4+ T cells by flow cytometry; format: cell-based, human; settings: donor independent, peptide pool 10 μg/mL, healthy donors; for Fold change (CD4+) vs. DMSO: maximum CD4+ T-cell response (TNFα and IFNγ); for Frequency (TNFα + IFNγ + CD4 T cells): maximum CD4+ T-cell response
Description: as §1, §2, §3, §4, §5

Row | Sequence | Fold change (CD8+) vs. DMSO (CD8+ T cells) | Frequency (TNFα + IFNγ + CD8 T cells) (CD8+ T cells) | Immunogenic (yes/no) (CD8+ T cells) | Fold change (CD4+) vs. DMSO (CD4+ T cells) | Frequency (TNFα + IFNγ + CD4 T cells) (CD4+ T cells)
1 | KRPMASEVSFILIQWLLKP [AS146, neoantigen, alternative splicing of PIP5K1A] | 24.2 fold | 0.26% | Yes | 8.88 fold | 0.037%
2 | PSPSTPNHSQQAICHPGRRP [AS105, neoantigen, alternative splicing of MPRIP] | 1.76 fold | 0.02% | Yes | 14.72 fold | 0.14%
3 | VEDEEKKEAGTHFIHLTGTTVSAGVPEEMPATTLRREVF [AS91, neoantigen, alternative splicing of ACIN1] | 46.44 fold | 0.21% | Yes | 36.02 fold | 0.23%
4 | NANSRLPEACEK [AS100, neoantigen, alternative splicing of FRYL] | 63.36 fold | 0.099% | Yes | 6.02 fold | 0.039%
5 | LLFPYNQLDLHLHRPSGSRKNEIHWDKCFSSED [AS68, neoantigen, alternative splicing of PKHD1L1] | 17.52 fold | 0.11% | Yes | 5.43 fold | 0.024%
6 | SISLTDDEAELPLLDL [AS77, neoantigen, alternative splicing of EP400] | 6.59 fold | 0.12% | Yes | 20.73 fold | 0.18%
7 | AAEQAGCMQCLI [FUS8, neoantigen, gene fusion TYSND1->AIFM2] | 6.27 fold | 0.12% | yes | 5.93 fold | 0.029%
8 | LRSLAGTYGRSPSPATRRKRSWSC [FUS25, neoantigen, gene fusion CLCF1->POLD4] | 2.79 fold | 0.048% | Yes | 16.49 fold | 0.059%
9 | NIEDVATEDGRHGGCHHGPGR [AS71, neoantigen, alternative splicing of SLC6A2] | 11.78 fold | 0.074% | Yes | 10.95 fold | 0.038%
10 | APILAAIGIGRLLCMDKIPATASLTP [FUS3, neoantigen, gene fusion PTH2R->LOC101927960] | 158.8 fold | 0.74% | yes | 5.02 fold | 0.025%
11 | SRRLKLAQGRLRGLERLHSPQPFLQPMLPQGAQGPCKAPGQGQLLGGRREPDPS [AS14, neoantigen, alternative splicing of FOXH1] | 257.47 fold | 5.6% | Yes | 59.26 fold | 0.12%
12 | WSQDLQEGFSAPSRISAWFGPP [AS17, neoantigen, alternative splicing of KRT8] | 169.53 fold | 0.79% | Yes | 29.97 fold | 0.41%
13 | FKIPKFSIVLSSNSAFRCDPLSSRPRCFGGSLEAP [AS27, neoantigen, alternative splicing of GTSE1] | 108.36 fold | 0.35% | Yes | 31.11 fold | 0.063%
14 | RNTLKESSKLKSSFEYWFAGFFSSSSSFFFLSRKFCFVFCLCWVESLGGVS [AS157, neoantigen, alternative splicing of ZIC4] | 51.78 fold | 0.16% | Yes | 5.53 fold | 0.083%
15 | YCKNDFFRSLPCHLL [AS16, neoantigen, alternative splicing of LHX1] | 2.88 fold | 0.062% | Yes | 5.43 fold | 0.011%
16 | PSSLPGPTGKYQSMVFGAWLMSVNISVYTLLEHG [AS140, neoantigen, alternative splicing of MUC16] | 115.04 fold | 0.22% | Yes | 79.1 fold | 0.14%
17 | TKKRKQSELQQP [AS95, neoantigen, alternative splicing of DMXL2] | 2.54 fold | 0.03% | No | 2.91 fold | 0.026%
18 | HFSRLCGPVSHLSAHLAHLR [AS119, neoantigen, alternative splicing of SMAD6] | 1.32 fold | 0.037% | Yes | 4.17 fold | 0.027%
19 | VIPGDLSEAHGYSFS [AS5, neoantigen, alternative splicing of PLAG1] | 2.41 fold | 0.017% | Yes | 17.14 fold | 0.18%
20 | QTQEETDRDRGSWSCAVA [AS64, neoantigen, alternative splicing of IQGAP3] | 33.44 fold | 0.21% | Yes | 5.43 fold | 0.024%
21 | ALTVVPPGLRLDRVLLHLW [FUS27, neoantigen, gene fusion C17orf99->SYNGR2] | 19.77 fold | 0.43% | Yes | 10.37 fold | 0.021%
22 | VLRKTAHRSTTARCSCPPWLTCWPRVAAPGALSTVAREASWWLLTTEVV [AS74, neoantigen, alternative splicing of TRPM5] | 1018.49 fold | 6.6% | Yes | 17.23 fold | 0.064%
23 | VEDEEKKEGSMLVAPTSPPSLEAGTHFIHLTGTTVSAGVPEEMPATTLRREVF [AS93, neoantigen, alternative splicing of ACIN1] | 459.18 fold | 0.9% | Yes | 253.72 fold | 1.62%
24 | SGCRLTLLSLSPVSSLGCPVPMP [AS107, neoantigen, alternative splicing of MUC16] | 2351.27 fold | 16.6% | Yes | 14.89 fold | 0.062%
